# From ChEMBL document CHEMBL6134827, “The discovery of novel antimicrobial peptides against drug-resistant bacteria based on fragments fusion strategy” (Eur J Med Chem, 2025)
# Starred links: 1 amine or outer side, 2 acyl side, 3 side chain; linkers in the order of their positions; H or OH if unused. Non-standard residues stand in square brackets, D forms with d. Residues, ends and D or L forms follow the SMILES beside them. Groups on a side chain read outwards from the residue. εLys = N[C@@H](CCCCN[*:1])C(=O)[*:2]; Dab = NCC[C@H](N)C(=O)O
# Tests used:
# Type in all cases: functional
# [1] = test system: Escherichia coli; test: Antimicrobial activity against Escherichia coli ATCC 25922 assessed as inhibition of visible microbial growth incubated for 18 hrs by broth microdilution method
# [2] = test system: Staphylococcus aureus; test: Antimicrobial activity against Staphylococcus aureus ATCC 29213 assessed as inhibition of visible microbial growth incubated for 18 hrs by broth microdilution method
# [3] = test system: Staphylococcus aureus; test: Antimicrobial activity against multidrug resistant Staphylococcus aureus assessed as inhibition of visible microbial growth incubated for 18 hrs by broth microdilution method
# [4] = test system: Escherichia coli; test: Antimicrobial activity against multidrug resistant Escherichia coli assessed as inhibition of visible microbial growth incubated for 18 hrs by broth microdilution method
# [5] = test system: Pseudomonas aeruginosa; test: Antimicrobial activity against multidrug resistant Pseudomonas aeruginosa assessed as inhibition of visible microbial growth incubated for 18 hrs by broth microdilution method
# [6] = test system: Acinetobacter baumannii; test: Antimicrobial activity against multidrug resistant Acinetobacter baumannii assessed as inhibition of visible microbial growth incubated for 18 hrs by broth microdilution method
Compound,MIC [1] [µM],MIC [2] [µM],MIC [3] [µM],MIC [4] [µM],MIC [5] [µM],MIC [6] [µM]
CC(C)C[C@H](NC(=O)CN)C(=O)N[C@@H](CCCNC(=N)N)C(=O)N[C@@H](CCCCN)C(=O)N[C@@H](Cc1c[nH]c2ccccc12)C(=O)N[C@@H](CC(C)C)C(=O)N[C@@H](CCCNC(=N)N)C(=O)N[C@@H](CCN)C(=O)N[C@@H](Cc1ccccc1)C(=O)N[C@@H](CCN)C(=O)N[C@@H](CCN)C(=O)N[C@@H](Cc1ccccc1)C(=O)N[C@@H](Cc1c[nH]c2ccccc12)C(=O)O (H-GLRKWLR[Dab]F[Dab][Dab]FW-OH),9.4,4.7,9.4,4.7,4.7,4.7
CC(C)C[C@H](NC(=O)CN)C(=O)N[C@@H](CCCNC(=N)N)C(=O)N[C@@H](CCCCN)C(=O)N[C@@H](Cc1c[nH]c2ccccc12)C(=O)N[C@@H](CC(C)C)C(=O)N[C@@H](CCCNC(=N)N)C(=O)NCCCC[C@H](N)C(=O)N[C@@H](Cc1ccccc1)C(=O)N[C@@H](CCCCN)C(=O)N[C@@H](CCCCN)C(=O)N[C@@H](Cc1ccccc1)C(=O)N[C@@H](Cc1c[nH]c2ccccc12)C(=O)O (H-GLRKWLR[εLys]FKKFW-OH),17.9,35.7,35.7,35.7,17.9,35.7
CC(C)C[C@H](NC(=O)CN)C(=O)N[C@@H](CCCNC(=N)N)C(=O)N[C@@H](CCN)C(=O)N[C@@H](Cc1c[nH]c2ccccc12)C(=O)N[C@@H](CC(C)C)C(=O)N[C@@H](CCCNC(=N)N)C(=O)N[C@@H](CCCCN)C(=O)N[C@@H](Cc1ccccc1)C(=O)N[C@@H](CCCCN)C(=O)N[C@@H](CCCCN)C(=O)N[C@@H](Cc1ccccc1)C(=O)N[C@@H](Cc1c[nH]c2ccccc12)C(=O)O (H-GLR[Dab]WLRKFKKFW-OH),9.1,18.1,18.1,9.1,4.5,4.5
CC(C)C[C@H](NC(=O)CN)C(=O)N[C@@H](CCCNC(=N)N)C(=O)NCCCC[C@H](N)C(=O)N[C@@H](Cc1c[nH]c2ccccc12)C(=O)N[C@@H](CC(C)C)C(=O)N[C@@H](CCCNC(=N)N)C(=O)N[C@@H](CCCCN)C(=O)N[C@@H](Cc1ccccc1)C(=O)N[C@@H](CCCCN)C(=O)N[C@@H](CCCCN)C(=O)N[C@@H](Cc1ccccc1)C(=O)N[C@@H](Cc1c[nH]c2ccccc12)C(=O)O (H-K([Arg-Leu-Gly])WLRKFKKFW-OH),8.9,35.7,35.7,35.7,8.9,35.7
H-GLRKFLRKFKKFGK-OH,18.2,36.5,73,36.5,73,36.5
H-GLRKFLRKFKKFWK-OH,8.5,34,34,17,17,8.5
H-GLRKRLRKFKKFGK-OH,72.7,72.7,> 72.7,72.7,> 72.7,72.7
H-GLRKWLRKFKKFWK-OH,8.3,16.6,16.6,8.3,8.3,8.3
